Values of other authors in patent US20250144059A1, “GUANIDINOACETIC ACID, ITS DERIVATES, COMPOSITIONS AND METHODS OF USE THEREOF” (priority 2023, published 2025).

Details: Merck Index 15th Edition 2013, item #4530

Question: Which solubility in water does the source give for `N=C(N)NCC(=O)O` [Number G10, guanidinoacetic acid] here?
Answer: fairly soluble in water
